# Results taken from patent US20230241257A1, “BIOTIN-MODIFIED DIMER AND USE THEREOF” (THE UNIVERSITY OF TOKYO, priority 2020, published 2023).
# How the values were obtained:
# [1] = test system: human stomach cancer cells (MKN-45); test: Experiment 10: therapeutic effects and toxicity of Cupid-scFv antibody (24 h before)+^211At-psyche-B in MKN-45 cancer-bearing mouse models; type: in vivo, mice (BALB/cSlc nu/nu)
# Description: The present experiment used human stomach cancer cells (MKN-45) expressing carcinoembryonic antigen (CEA). 9-week-old male immunodeficient mice (BALB/cSlc nu/nu) were used. MKN-45 cells (5×10^6/0.1 ml) were transplanted into the mice's subcutis on the right shoulder dorsal side to produce cancer-bearing mouse models. At the time point in which the tumor volume became a predetermined size (on Day 8 after the transplantation), the mice were divided into six groups, which were for use in the evaluation of the therapeutic effects, and a biodistribution group (6 hours) of cancer-bearing mouse models having this tumor size. The Cupid-scFv antibody was administered 100 μmol/0.1 ml via the caudal vein of each mouse. Twenty-four hours after administration of the Cupid-scFv antibody, ^211At-psyche-B was administered via the caudal vein of each mouse in an amount of 3.70 MBq, 1.85 MBq, 1.11 MBq, or 0.37 MBq.
# In the present experiment, a 5.55 MBq administration group was not established. To a control group, a solvent for the ^211At-psyche-B was administered (solvent group). A group to which only cupid was administered was defined as a Cupid group. The mice's general states were observed and recorded immediately after administration of the ^211At-psyche-B and at 3 hours after the administration. Moreover, until Day 14, after administration of the ^211At-psyche-B, observation of the general states and the measurement of the body weight was carried out every day. After Day 14 of the administration of the […], observation of the general states and the measurement of the body weight was carried out every other day. The tumor size was measured every other day after the treatment with the ^211At-psyche-B. On Day 36, after the treatment with the ^211At-psyche-B, observation of the general states, the measurement of the body weight, and the measurement of the tumor size were carried out, and the mice were then euthanized by collecting whole blood from the heart of each mouse under isoflurane anesthesia. Tumor tissues and major tissues/organs were excised from the mice, weighed, and immobilized with formalin.
# [2] = test system: human stomach cancer cells (MKN-45); test: Experiment 5: pharmacokinetics of Cupid-scFv antibody (24 h before)+^211At-psyche-BR in MKN-45 cancer-bearing mouse models; type: in vivo, mice (BALB/cSlc nu/nu)
# Description: The present experiment used human stomach cancer cells (MKN-45) expressing carcinoembryonic antigen (CEA). 9-week-old male immunodeficient mice (BALB/cSlc nu/nu) were used. MKN-45 cells (1×10^7/0.1 ml) were transplanted into the mice's subcutis on the right shoulder dorsal side to produce cancer-bearing mouse models. The mice were divided into four groups when the tumor volume became a predetermined size (on Day 13 after the transplantation). The Cupid-scFv antibody was administered in 100 μmol/0.1 ml via the caudal vein of each mouse. Twenty-four hours after administration of the Cupid-scFv antibody, ^211At-psyche-BR (about 0.25 MBq/100 ml) was administered via the caudal vein of each mouse. One minute, 1 hour, 6 hours, and 24 hours after administration of the ^211At-psyche-BR, the mice were euthanized by collecting whole blood from the heart of each mouse under isoflurane anesthesia, and tumor tissues and normal tissues/organs were then excised. Normal tissues/organs: skin (lower right limb), muscle (right gastrocnemius muscle), heart, lung, spleen, pancreas, white fat (upper portion of right side testis), testis (both sides), stomach, stomach contents, small intestine (including contents), large intestine (including contents), liver, brown fat (interscapular), submandibular gland, thyroid gland (together with trachea), bone (right femur), cerebrum, eyeballs (both sides), bladder, and urine; the remaining residues were divided into three equal parts, and the three equal parts were defined to be residue-1, residue-2, and residue-3. After that, the weights of blood, plasma, urine, tumor, and normal tissues/organs were measured, and the radioactivity thereof was then measured using a γ counter. The amounts of the ^211At-psyche-BR (radioactivity) accumulated in the blood, plasma, urine, tumor, and normal tissues/organs were calculated. That is to say, the rates (% ID/g) of the ^211At-psyche-BR accumulated per unit weight (g) of the blood, plasma, urine, tumor, and normal tissues/organs, in the administered ^211At-psyche-BR were shown. Regarding accumulation of the ^211At-psyche-BR in the thyroid gland, since the weight of the thyroid gland could not be precisely measured, it was shown that the rate (% ID) of the ^211At-psyche-BR accumulated in the thyroid gland in the administered ^211At-psyche-BR.
structure (smiles),measurement,setting,value
N=C1N[C@H]2[C@H](CS[C@H]2CCCCC(=O)NCCCCCC(=O)Nc2cc(NC(=O)CCCCCNC(=O)CCCC[C@@H]3SC[C@@H]4NC(=N)N[C@@H]43)cc(C(=O)NCCOCCOCCNC(=O)c3cccc([211At])c3)c2)N1 [^211At-psyche-B],body weight reduction,"[1]; 0.37 MBq, before Day 10",body weight reduction was lower than that in the 1.11 MBq
same,body weight reduction,"[1]; 0.37 MBq, on and after Day 10",the body weight reduction was the same as in the 1.11 MBq
same,tumor growth compared with the control group,"[1]; 0.37 MBq, until Day 10",tumor growth was suppressed
same,body weight recovery,"[1]; 1.11 MBq, after Day 5",the body weight was not recovered to the same level as the control groups
same,body weight,"[1]; 1.11 MBq, until Day 5",the body weight was slightly reduced
same,tumor growth compared with the control group,"[1]; 1.11 MBq, until Day 10",tumor growth was suppressed
same,tumor growth compared with the control group,"[1]; 1.85, 1.11 and 0.37 MBq, after Day 10",the tumor growth was suppressed in an amount-dependent manner
same,general states and body weight,"[1]; 1.85 MBq, Day 5",general states and body weight reduction became significantly severe
same,mortality,"[1]; 1.85 MBq, Day 10",one mouse died
same,recovery of general states,"[1]; 1.85 MBq, Day 26",the mice were completely recovered
same,skin findings,"[1]; 1.85 MBq, on and after Day 6 until Day 12",red spots were dispersed on the skin
same,tumor growth compared with the control group,"[1]; 1.85 MBq, until Day 10",tumor growth was suppressed
same,general states and body weight,"[1]; 3.70 MBq, Day 5, urgent euthanasia",general states and body weight reduction became severe
N=C1N[C@H]2[C@H](CS[C@H]2CCCCNC(=O)CCCCCC(=O)Nc2cc(NC(=O)CCCCCC(=O)NCCCC[C@@H]3SC[C@@H]4NC(=N)N[C@@H]43)cc(C(=O)NCCOCCOCCNC(=O)c3cccc([211At])c3)c2)N1 [^211At-psyche-BR],Accumulation in the kidney,[2]; after 1 minute,28.6±1.3 % ID/g
same,Accumulation in the liver,[2]; after 1 minute,13.3±2.2 % ID/g
same,Accumulation in the lung,[2]; after 1 minute,14.4±1.6 % ID/g
same,Accumulation in the spleen,[2]; after 1 minute,4.7±0.4 % ID/g
same,Accumulation in the tumor,[2]; after 1 minute,0.6±0.1 % ID/g
same,Clearance from the blood,[2]; after 1 minute,46.9±1.1 % ID/g
same,tumor-to-blood ratio,[2]; after 1 minute,0.01±0.00
same,tumor-to-muscle ratio,[2]; after 1 minute,1.22±0.05
same,Accumulation in the kidney,[2]; after 1 hour,17.1±1.4 % ID/g
same,Accumulation in the liver,[2]; after 1 hour,11.4±0.7 % ID/g
same,Accumulation in the lung,[2]; after 1 hour,13.2±2.2 % ID/g
same,Accumulation in the spleen,[2]; after 1 hour,7.1±0.2 % ID/g
same,Accumulation in the tumor,[2]; after 1 hour,3.1±0.7 % ID/g
same,Clearance from the blood,[2]; after 1 hour,39.5±5.2 % ID/g
same,tumor-to-blood ratio,[2]; after 1 hour,0.08±0.02
same,tumor-to-muscle ratio,[2]; after 1 hour,5.11±1.81
same,Accumulation in the kidney,[2]; after 6 hours,9.5±0.2 % ID/g
same,Accumulation in the liver,[2]; after 6 hours,12.8±0.2 % ID/g
same,Accumulation in the lung,[2]; after 6 hours,9.1±1.0 % ID/g
same,Accumulation in the spleen,[2]; after 6 hours,8.4±1.0 % ID/g
same,Accumulation in the tumor,[2]; after 6 hours,9.3±0.6 % ID/g
same,Clearance from the blood,[2]; after 6 hours,25.3±1.0 % ID/g
same,tumor-to-blood ratio,[2]; after 6 hours,0.7±0.02
same,tumor-to-muscle ratio,[2]; after 6 hours,12.80±1.86
same,Accumulation in the thyroid gland,[2]; after 24 h,0.15±0.05 % ID
same,Accumulation in the kidney,[2]; after 24 hours,5.4±0.5%
same,Accumulation in the liver,[2]; after 24 hours,7.8±0.9%
same,Accumulation in the lung,[2]; after 24 hours,5.3±0.1%
same,Accumulation in the spleen,[2]; after 24 hours,5.5±1.1%
same,Accumulation in the tumor,[2]; after 24 hours,18.4±2.5%
same,Clearance from the blood,[2]; after 24 hours,8.3±0.5 % ID/g
same,amount administered excreted (blood),[2]; after 24 hours,about 92%
same,tumor-to-blood ratio,[2]; after 24 hours,2.23±0.41
same,tumor-to-muscle ratio,[2]; after 24 hours,25.07±3.68
